Six molecules from article PMC11783601, “Analogue-Sensitive Inhibition of Histone Demethylases Uncovers Member-Specific Function in Ribosomal Protein Synthesis” (Journal of the American Chemical Society, 2025) can be followed below.

Data set [1] has as its target T1, wild type KDM4A (Homo sapiens, UniProt O75164).
T1 construct: human KDM4A-jmjC domain (catalytic domain of KDM4A); 6xHis (N); host or cells: E. coli BL21 (DE3)
T1 sequence (O75164 142-308 limits assumed): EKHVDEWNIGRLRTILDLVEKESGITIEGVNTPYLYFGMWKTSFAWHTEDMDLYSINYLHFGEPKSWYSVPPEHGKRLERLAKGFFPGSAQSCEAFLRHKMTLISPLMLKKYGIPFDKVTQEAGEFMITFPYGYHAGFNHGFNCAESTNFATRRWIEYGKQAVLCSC
Nature of the data set: Coupled fluorescence (FDH/NADH) assay, kinetic parameters with 2OG. The format is biochemical. Particulars: H3K9me3 demethylation, saturating peptide, 2OG as cofactor.

For the next data set, the target named is T2, KDM4A-F185A (Homo sapiens, UniProt O75164, F185A).
T2 construct: human KDM4A-jmjC domain (catalytic domain of KDM4A); 6xHis (N); host or cells: E. coli BL21 (DE3)
T2 sequence (O75164 142-308 F185A limits assumed): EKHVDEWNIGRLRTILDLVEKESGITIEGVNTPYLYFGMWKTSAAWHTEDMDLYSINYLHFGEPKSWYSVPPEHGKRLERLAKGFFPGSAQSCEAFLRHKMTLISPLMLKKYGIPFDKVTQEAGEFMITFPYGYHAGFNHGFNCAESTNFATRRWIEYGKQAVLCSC
Nature of the data set: MALDI-MS end-point demethylase assay on H3K9me3 peptide. Format: biochemical. The source says: To develop an appropriate inhibitor, we selected N-oxalyl glycine (NOG, 2) scaffold because of its structural similarity with 2OG and the ability to inhibit 2OG-utilizing enzymes including KDMs (Figure 1C).[29]−[31] Substituting −CH2– at C3 of 2OG with −NH– in NOG prevents its oxidative decarboxylation by KDMs, making the inhibitor cofactor-competitive. […] We synthesized a panel of eight NOG analogues (3–10), derived from L-amino acids, carrying varied steric substituents at C4, with the reasoning that a bulky substituent at C4 would selectively fit into the expanded pocket of F185A over wild type KDM4A (Figures 2B and S1–S6, Schemes S1 and S2). The inhibitory effect of each compound was determined based on the extent of enzyme-catalyzed demethylation of a canonical peptide substrate corresponding to the N-terminus of histone 3 carrying trimethylated lysine at position 9 (H3K9me3). […] Such orthogonal inhibition of the engineered demethylase constitutes a powerful chemical probe to study the functions of a specific member of an enzyme family without issues of off-target activity. […]
(§1) assay (Biorad) kit with BSA concentrations as a standard. […]
8. Demethylase activity of the wild type and mutant KDM4 proteins on peptide substrate To monitor enzymatic activity, a demethylase activity assay was optimized and then observed through MALDI-TOF.7 Each histone demethylase assay sample included either wild type or mutant enzyme (10µM KDM4A, 7.5µM KDM4C, 10µM KDM4D, or 1µM KDM4E), 10 µM peptide, 200 µM 2OG, 50 mM Tris pH 8, […], 0-200µM NOG analogue, and 2 mM L-ascorbic acid with a total assay volume of 10 µL. Fe(II) supplement and L-ascorbic acid […]
Lastly, the 2OG and peptide were […]
positive mode and analyzed on Bruker FlexAnalysis software. The percent demethylated peptide […]
(§2) the multiple demethylation events on the peptide. […]
varying concentrations (0-10 µM). […] The fluorescence intensity was measured with excitation = 340 nm and emission = 490 nm on a TECAN Infinite M1000Pro. […]
The set up and analysis for IC50 of L-Leu NOG against KDM4A F185A enzyme was similar to that described in the coupled fluorescence assay section, but adjusted to function as an end point assay. […]
and varying concentration of compounds (NOGs 6, 9 and 10) and a substrate cocktail (200 µM 2OG and 60 µM H3K9me3 peptide). Different concentrations of NOG 6 were measured at one time point ranging for 1-5 hours. For 9 and 10, the same set-up remained, but enzymatic activity was measured via MALDI-TOF analysis, and relative activity and inhibition was calculated for different NOG concentrations as described above. […]
and analyzed on Bruker FlexAnalysis software. The percent demethylated peptide was calculated by first multiplying the K27me1 peak by 2 and the K27me0 peak by 3 to account for the multiple

In data set [2] the target is T1, wild type KDM4A. Described as above. Format: biochemical. Particulars: H3K9me3 peptide, 200 µM 2OG, fixed concentration of NOG analogue.
Excerpt: To develop an appropriate inhibitor, we selected N-oxalyl glycine (NOG, 2) scaffold because of its structural similarity with 2OG and the ability to inhibit 2OG-utilizing enzymes including KDMs (Figure 1C).[29]−[31] Substituting −CH2– at C3 of 2OG with −NH– in NOG prevents its oxidative decarboxylation by KDMs, making the inhibitor cofactor-competitive. […] We synthesized a panel of eight NOG analogues (3–10), derived from L-amino acids, carrying varied steric substituents at C4, with the reasoning that a bulky substituent at C4 would selectively fit into the expanded pocket of F185A over wild type KDM4A (Figures 2B and S1–S6, Schemes S1 and S2). The inhibitory effect of each compound was determined based on the extent of enzyme-catalyzed demethylation of a canonical peptide substrate corresponding to the N-terminus of histone 3 carrying trimethylated lysine at position 9 (H3K9me3). […] Such orthogonal inhibition of the engineered demethylase constitutes a powerful chemical probe to study the functions of a specific member of an enzyme family without issues of off-target activity.
as §1
8. […]
2 mM L-ascorbic acid with a total assay volume of 10 µL. Fe(II) supplement and L-ascorbic acid
Lastly, the 2OG and peptide were
positive mode and analyzed on Bruker FlexAnalysis software. The percent demethylated peptide
as §2

Substrate in data set [3]: O=C(O)CCC(=O)C(=O)O
Nature of the data set: purified protein, by the assay type. The following applies: other: saturating H3K9me3 peptide; pH 8.0; 37.0 °C.

On to `O=C(O)CCC(=O)C(=O)O` [compound 1, 2-oxoglutarate], for which the kcat came to 0.26 ± 0.01 min^–1 at wild type KDM4A [1] (listed as 2OG) and 0.2562±0.0072 min^–1 at wild type KDM4A [1] (listed as 2OG 1).
Take `O=C(O)CNC(=O)C(=O)O` [compound 2, N-oxalyl glycine, reference compound]: the “inhibition of F185A mutant demethylase activity (MALDI-MS)” value at KDM4A-F185A (H3K9me3 peptide, 200 µM 2OG, fixed concentration of NOG analogue) was “weakly inhibited”. For the same molecule, on wild type KDM4A [2], the “inhibition of wild type KDM4A demethylase activity (MALDI-MS)” value was “weakly inhibited”.
What is called IC50 is the concentration that inhibits the measured activity by half. A high value points to weaker potency. In turn, `O=C(O)C(=O)N[C@@H](Cc1ccccc1)C(=O)O` [compound 9, phenylalanine NOG] came in with an IC50 against KDM4A-F185A of 28.7 ± 1.3 µM.
`O=C(O)C(=O)N[C@@H](CC1CCCCC1)C(=O)O` [compound 10, cyclohexyl NOG] returned an IC50 on KDM4A-F185A of 4.7 ± 1.7 µM. Against the preceding molecule, the IC50 is about 6.1-fold lower.

B1: wild type KDM4A (Homo sapiens) (protein)
chain: EKHVDEWNIGRLRTILDLVEKESGITIEGVNTPYLYFGMWKTSFAWHTEDMDLYSINYLHFGEPKSWYSVPPEHGKRLERLAKGFFPGSAQSCEAFLRHKMTLISPLMLKKYGIPFDKVTQEAGEFMITFPYGYHAGFNHGFNCAESTNFATRRWIEYGKQAVLCSC
In general, Km refers to the substrate concentration at which the rate is half of its maximum. On to B1, for which the Km in data set [3] came out at 7.52 ± 1.2 µM.

B2: KDM4A-F185A (Homo sapiens; F185A) (protein)
chain: EKHVDEWNIGRLRTILDLVEKESGITIEGVNTPYLYFGMWKTSAAWHTEDMDLYSINYLHFGEPKSWYSVPPEHGKRLERLAKGFFPGSAQSCEAFLRHKMTLISPLMLKKYGIPFDKVTQEAGEFMITFPYGYHAGFNHGFNCAESTNFATRRWIEYGKQAVLCSC
Consider B2, for which the Michaelis-Menten constant (Km) in data set [3] worked out at 52 ± 11 µM.
